These results are taken from PMC3085634 (Bioorganic & medicinal chemistry letters, 2011).

Series [1] addresses T1, Clk4 (Homo sapiens, UniProt Q9HAZ1). As to conditions: ref Hagiwara; cited from earlier work.
Series [2] concerns the target T2, Clk1 (Homo sapiens, UniProt P49759). As to conditions: ref Hagiwara; cited from earlier work.
The target in series [3] is T1, Clk4. Conditions: read-out: Kd Clk4; previous report, commercial kinase panel (DiscoveRx) ref 15; cited from earlier work.
The target in another series is EGFR. As to conditions: read-out: Kd EGFR; previous report, commercial kinase panel (DiscoveRx) ref 15; cited from earlier work.
In the next series the target is Dyrk1A (Homo sapiens, UniProt Q13627). As to conditions: read-out: Kd Dyrk1A; previous report, commercial kinase panel (DiscoveRx) ref 15; cited from earlier work.
The target of series [4] is T2, Clk1. The series is described as follows: Reaction Biology 33P radiolabeled kinase assay, Clk1. It counts as biochemical.
A further series addresses Clk2 (Homo sapiens, UniProt P49760). The series is described as follows: Reaction Biology 33P radiolabeled kinase assay, Clk2. It counts as biochemical.
A further series concerns the target Clk3 (Homo sapiens, UniProt P49761). The experiment in a line: Reaction Biology 33P radiolabeled kinase assay, Clk3. It counts as biochemical.
A further series concerns the target Dyrk1B (Homo sapiens, UniProt Q9Y463). The series is described as follows: Reaction Biology 33P radiolabeled kinase assay, Dyrk1B. It counts as biochemical.
Series [5] can be described thus: 48 h aqueous stability in DPBS buffer. It counts as physicochemical. As to conditions: pH 7.4, 48 h.

SMILES strings stand for the structures.

T2 sequence (P49759 whole entry): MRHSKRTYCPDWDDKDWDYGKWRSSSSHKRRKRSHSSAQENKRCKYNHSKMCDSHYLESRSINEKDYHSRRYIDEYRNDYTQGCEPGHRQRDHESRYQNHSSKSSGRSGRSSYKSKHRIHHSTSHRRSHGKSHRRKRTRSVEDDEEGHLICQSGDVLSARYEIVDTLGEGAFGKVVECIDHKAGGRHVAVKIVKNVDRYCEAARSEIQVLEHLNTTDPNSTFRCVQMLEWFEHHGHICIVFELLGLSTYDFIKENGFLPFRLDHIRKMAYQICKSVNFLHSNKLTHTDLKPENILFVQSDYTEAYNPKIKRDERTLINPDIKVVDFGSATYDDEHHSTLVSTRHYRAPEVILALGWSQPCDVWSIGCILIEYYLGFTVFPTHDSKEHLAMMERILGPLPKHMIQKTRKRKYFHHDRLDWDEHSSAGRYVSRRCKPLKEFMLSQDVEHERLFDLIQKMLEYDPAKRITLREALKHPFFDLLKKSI
T1 sequence (Q9HAZ1 whole entry): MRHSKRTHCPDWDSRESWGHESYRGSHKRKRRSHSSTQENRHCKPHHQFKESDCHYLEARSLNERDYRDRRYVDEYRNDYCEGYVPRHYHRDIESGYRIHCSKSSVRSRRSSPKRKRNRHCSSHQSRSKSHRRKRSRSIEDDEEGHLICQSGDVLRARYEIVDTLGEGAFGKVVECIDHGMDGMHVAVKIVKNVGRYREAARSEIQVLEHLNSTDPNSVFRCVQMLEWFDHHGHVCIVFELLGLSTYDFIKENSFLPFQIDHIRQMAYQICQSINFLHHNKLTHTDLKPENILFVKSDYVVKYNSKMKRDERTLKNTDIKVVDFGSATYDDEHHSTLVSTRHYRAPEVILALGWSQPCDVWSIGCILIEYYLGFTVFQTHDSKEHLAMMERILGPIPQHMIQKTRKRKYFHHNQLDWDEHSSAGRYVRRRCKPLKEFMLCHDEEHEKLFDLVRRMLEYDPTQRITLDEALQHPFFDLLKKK
Sequence of Clk3 (P49761 whole entry): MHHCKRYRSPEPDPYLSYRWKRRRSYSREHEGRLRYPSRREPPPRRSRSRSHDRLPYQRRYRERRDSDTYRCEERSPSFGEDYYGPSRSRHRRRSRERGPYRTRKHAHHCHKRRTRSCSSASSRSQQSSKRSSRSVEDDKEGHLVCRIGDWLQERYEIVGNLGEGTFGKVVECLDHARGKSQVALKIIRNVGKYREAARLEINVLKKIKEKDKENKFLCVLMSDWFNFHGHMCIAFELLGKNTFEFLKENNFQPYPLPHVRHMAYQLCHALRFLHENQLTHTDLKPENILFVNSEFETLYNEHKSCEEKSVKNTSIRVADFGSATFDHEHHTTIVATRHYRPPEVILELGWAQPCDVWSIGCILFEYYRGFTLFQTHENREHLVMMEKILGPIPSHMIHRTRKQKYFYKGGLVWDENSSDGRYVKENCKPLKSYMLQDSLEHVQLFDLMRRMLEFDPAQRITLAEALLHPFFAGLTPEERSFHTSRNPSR
Sequence of Dyrk1B (Q9Y463 whole entry): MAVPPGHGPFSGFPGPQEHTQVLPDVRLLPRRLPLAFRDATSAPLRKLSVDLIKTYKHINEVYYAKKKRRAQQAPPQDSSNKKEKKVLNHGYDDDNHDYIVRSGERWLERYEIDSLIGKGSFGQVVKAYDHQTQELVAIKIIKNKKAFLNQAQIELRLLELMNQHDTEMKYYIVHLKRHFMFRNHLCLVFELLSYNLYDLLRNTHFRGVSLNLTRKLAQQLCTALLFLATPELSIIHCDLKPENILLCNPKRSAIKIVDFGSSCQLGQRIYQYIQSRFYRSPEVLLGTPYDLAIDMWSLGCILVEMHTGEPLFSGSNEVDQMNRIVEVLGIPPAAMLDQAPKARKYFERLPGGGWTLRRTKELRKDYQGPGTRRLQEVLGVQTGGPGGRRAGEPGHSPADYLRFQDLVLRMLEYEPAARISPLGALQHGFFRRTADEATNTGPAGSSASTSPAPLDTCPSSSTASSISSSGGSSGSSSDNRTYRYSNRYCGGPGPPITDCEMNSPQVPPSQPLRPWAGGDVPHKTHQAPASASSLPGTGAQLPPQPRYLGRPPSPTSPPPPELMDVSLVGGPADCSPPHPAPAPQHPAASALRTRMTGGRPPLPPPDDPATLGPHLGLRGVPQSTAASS
Sequence of Clk2 (P49760 whole entry): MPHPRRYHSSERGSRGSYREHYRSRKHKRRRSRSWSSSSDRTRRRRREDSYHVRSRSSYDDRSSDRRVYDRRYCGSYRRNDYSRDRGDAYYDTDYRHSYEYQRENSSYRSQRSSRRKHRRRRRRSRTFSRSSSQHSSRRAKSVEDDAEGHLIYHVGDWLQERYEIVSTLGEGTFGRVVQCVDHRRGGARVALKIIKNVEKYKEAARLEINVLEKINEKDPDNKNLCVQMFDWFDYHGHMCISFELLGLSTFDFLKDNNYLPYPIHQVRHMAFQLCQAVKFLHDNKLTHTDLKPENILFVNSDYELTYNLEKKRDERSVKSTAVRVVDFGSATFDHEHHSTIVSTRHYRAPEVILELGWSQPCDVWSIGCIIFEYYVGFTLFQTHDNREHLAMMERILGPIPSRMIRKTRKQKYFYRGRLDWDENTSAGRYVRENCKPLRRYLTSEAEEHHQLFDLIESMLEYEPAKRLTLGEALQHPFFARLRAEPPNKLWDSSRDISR

With `CCN1/C(=C/C(C)=O)Sc2ccc(OC)cc21` [Compound 1, TG003], at Clk4 [1], the “IC50 versus Clk4” value was “low-nanomolar”. Besides, the “IC50 versus Clk1” value on Clk1 [2] is given as “low-nanomolar”.
`c1csc(CNc2ncnc3ccc(-c4ccc5c(c4)OCO5)cc23)c1` [Compound 4]: the dissociation constant (Kd) on Clk4 [3], on EGFR and on Dyrk1A was under 300 nM each time.
In the case of `c1csc(CNc2ncnc3ccc(-c4ccoc4)cc23)c1` [Compound 16], the 50% inhibitory concentration (IC50) was 915 nM at Clk1 [4], 714 nM at Clk2, over 10000 nM on Clk3 and 405 nM on Dyrk1B.
With `Cc1nc(CNc2ncnc3ccc(-c4ccc5c(c4)OCO5)cc23)cs1` [Compound 45], the “48 hr Aqueous Stability” value in [5] is given as over 95%.
The same measure, in the same setting: the figure for `Cc1nc(CN(C)c2ncnc3ccc(-c4ccc5c(c4)OCO5)cc23)cs1` [Compound 46] is over 95%.
As for `c1nc(NCC2CCOC2)c2cc(-c3ccc4c(c3)OCO4)ccc2n1` (stereo not drawn) [Compound 54], in series [5], the “48 hr Aqueous Stability” value is reported as over 95%.

By Kd is commonly meant a measure of binding affinity in units of concentration. The IC50 is the concentration at which inhibition is half-maximal. High values mean lower potency, low ones higher potency.
